{
  "source": "patent US20070004650A1",
  "about": "“Endurance improving agent” (KAO CORPORATION, priority 2003, published 2007)",
  "assay_type_in_all_cases": "cell-based, mouse",
  "key": {"phospho-AMPK α (Thr72)": {"test_system": "phospho-AMPK α (Thr72)", "experiment": "AMPK activation in Hepa 1-6 cells, phospho-AMPK α Western blot", "settings": "for Phospho-AMPK α: 60 minutes, Hepa 1-6, band intensity relative to control = 100; for AMPK-activating effect (summary in words): Hepa 1-6, results of Tables 4 to 6", "description": "(§1) Test 3 (AMPK Activating Effect of Catechins)\n(§2) Using a mouse hepatocyte line (Hepa 1-6), activation of AMPK was assessed based on degrees of phosphorylation of AMPK and ACC (acetyl-CoA carboxylase) as indices.\nThe mouse hepatocyte line (Hepa 1-6) was seeded in a 25-cm^2 flask, and cultured in DMEM (+10% FBS, +antimicrobial agent) at 37° C. for 1 to 2 days. When the culture has become subconfluent, the medium was removed. After washed with PBS(−),DMEM(−FBS)was added as a replacement medium, followed by further culture for 1 day. Subsequent to removal of the medium, DMEM (−FBS) with catechins and a tea extract added at predetermined concentrations therein was added, followed by culture for 60 minutes. Subsequent to removal of the medium and washing with PBS (−), a lytic solution [10 mM Tris (pH 7.4), 50 mM NaCl, 30 mM sodium pyrophosphate, 0.5% Triton X-100, protease inhibitor cocktail (“SIGMA P2714”), phosphatase inhibitor cocktail-1 (“SIGMA P2850”), phosphatase inhibitor cocktail 1-2 (“SIGMA P5726”); 200 μL] was added, and a lysate was collected by a cell scraper. The thus-collected lysate was caused to pass three times through a syringe with 23 G needle so that the lysate was homogenized. The homogenized lysate was then allowed stand on ice for 30 minutes. The lysate was centrifuged at 15,000 rpm and at 4° C. for 15 minutes, and proteins in supernatant were provided for use in the following experiment.\nAfter the concentration of the proteins in supernatant was measured, it was adjusted such that the protein concentration became identical among the samples. A ¼ volume of SDS buffer (250 mM Tris, 12.5% SDS, 20% glycerol) was added, followed by further addition of 2-mercaptoethanol and bromophenol blue. The resulting mixture was subjected to thermal denaturation at 95° C., and was then quenched at 4° C. to provide a sample for electrophoresis.\nA predetermined amount (about 20 to 40 μg) of the sample for electrophoresis was subjected to SDS-PAGE (4 or 12% gel). After transferred onto a membrane, phospho-AMPK α (Thr72), phospho-AMPK β (Ser108) and phospho-ACC (Ser79) were detected using an anti-phospho-AMPK α antibody (product of Cell Signaling Technology, Inc.), an anti-phospho-AMPK β antibody (product of Cell Signaling Technology, Inc.) or an anti-phospho-ACC antibody (product of Cell Signaling Technology, Inc.) as a primary antibody, an anti-rabbit-HRP antibody (product of Amersham Biosciences, Inc.) as a secondary antibody, and a phototope-HRP Western detection system (product of Cell Signaling Technology, Inc.) as a detection reagent. The intensities of detected bands were converted into numerical values (pixels) by an image analysis (“EDAS 290 Image Analysis System”, Kodak Company). Supposing that the corresponding band intensities of the control (catechins non-added group) were 100, the numerical values (pixels) were indicated as relative values to the values of the control. It is to be noted that as catechin samples, products of SIGMA Corporation or Wako Pure Chemical Industries, Ltd. were used. As the tea extract (tea catechins), “TEAFURAN” (product of ITO EN, LTD.) as used."}, "phospho-AMPK β (Ser108)": {"test_system": "phospho-AMPK β (Ser108)", "experiment": "AMPK activation in Hepa 1-6 cells, phospho-AMPK β Western blot", "settings": "60 minutes, band intensity relative to control = 100", "description": "as §1, §2\nThe mouse hepatocyte line (Hepa 1-6) was seeded in a 25-cm^2 flask, and cultured in DMEM (+10% FBS, +antimicrobial agent) at 37° C. for 1 to 2 days. When the culture has become subconfluent, the medium was removed. After washed with PBS(−),DMEM(−FBS)was added as a replacement medium, followed by further culture for 1 day. […]\nAfter the concentration of the proteins in supernatant was measured, it was adjusted such that the protein concentration became identical among the samples. […]\nA predetermined amount (about 20 to 40 μg) of the sample for electrophoresis was subjected to SDS-PAGE (4 or 12% gel). After transferred onto a membrane, phospho-AMPK α (Thr72), phospho-AMPK β (Ser108) and phospho-ACC (Ser79) were detected using an anti-phospho-AMPK α antibody (product of Cell Signaling Technology, Inc.), an anti-phospho-AMPK β antibody (product of Cell Signaling Technology, Inc.) or an anti-phospho-ACC antibody (product of Cell Signaling Technology, Inc.) as a primary antibody, an anti-rabbit-HRP antibody (product of Amersham Biosciences, Inc.) as a secondary antibody, and a phototope-HRP Western detection system (product of Cell Signaling Technology, Inc.) as a detection reagent. […]"}, "phospho-ACC (Ser79)": {"test_system": "phospho-ACC (Ser79)", "experiment": "AMPK activation in Hepa 1-6 cells, phospho-ACC Western blot", "settings": "60 minutes, band intensity relative to control = 100", "quoted_text": "The mouse hepatocyte line (Hepa 1-6) was seeded in a 25-cm^2 flask, and cultured in DMEM (+10% FBS, +antimicrobial agent) at 37° C. for 1 to 2 days. When the culture has become subconfluent, the medium was removed. After washed with PBS(−),DMEM(−FBS)was added as a replacement medium, followed by further culture for 1 day. Subsequent to removal of the medium, DMEM (−FBS) with catechins and a tea extract added at predetermined concentrations therein was added, followed by culture for 60 minutes. […]\nA predetermined amount (about 20 to 40 μg) of the sample for electrophoresis was subjected to SDS-PAGE (4 or 12% gel). […] The intensities of detected bands were converted into numerical values (pixels) by an image analysis (“EDAS 290 Image Analysis System”, Kodak Company). […]"}},
  "data": [
    {"molecule": "Oc1cc(O)c2c(c1)O[C@H](c1ccc(O)c(O)c1)[C@H](O)C2", "note": "[Epicatechin]", "values": [
      {"measurement": "Phospho-AMPK α", "setting": "phospho-AMPK α (Thr72); Table 4, 150 μM", "result": 246}
    ]},
    {"molecule": "O=C(O[C@@H]1Cc2c(O)cc(O)cc2O[C@@H]1c1ccc(O)c(O)c1)c1cc(O)c(O)c(O)c1", "note": "[Epicatechingallate]", "values": [
      {"measurement": "Phospho-AMPK α", "setting": "phospho-AMPK α (Thr72); Table 4, 150 μM", "result": 256}
    ]},
    {"molecule": "Oc1cc(O)c2c(c1)O[C@H](c1cc(O)c(O)c(O)c1)[C@H](O)C2", "note": "[Epigallocatechin]", "values": [
      {"measurement": "AMPK-activating effect (summary in words)", "setting": "phospho-AMPK α (Thr72)", "result": "excellent AMPK-activating effect"},
      {"measurement": "Phospho-AMPK α", "setting": "phospho-AMPK α (Thr72); Table 4, 150 μM", "result": 435}
    ]},
    {"molecule": "O=C(O[C@@H]1Cc2c(O)cc(O)cc2O[C@@H]1c1cc(O)c(O)c(O)c1)c1cc(O)c(O)c(O)c1", "note": "[Epigallocatechingallate]", "values": [
      {"measurement": "AMPK-activating effect (summary in words)", "setting": "phospho-AMPK α (Thr72)", "result": "excellent AMPK-activating effect"},
      {"measurement": "Phospho-AMPK α", "setting": "phospho-AMPK α (Thr72); Table 4, 150 μM", "result": 1085},
      {"measurement": "Phospho-AMPK α", "setting": "phospho-AMPK α (Thr72); Table 5, 100 μM", "result": 198},
      {"measurement": "Phospho-AMPK α", "setting": "phospho-AMPK α (Thr72); Table 5, 150 μM", "result": 261},
      {"measurement": "Phospho-AMPK β", "setting": "phospho-AMPK β (Ser108); Table 5, 100 μM", "result": 120},
      {"measurement": "Phospho-AMPK β", "setting": "phospho-AMPK β (Ser108); Table 5, 150 μM", "result": 149},
      {"measurement": "Phospho-ACC", "setting": "phospho-ACC (Ser79); Table 5, 100 μM", "result": 220},
      {"measurement": "Phospho-ACC", "setting": "phospho-ACC (Ser79); Table 5, 150 μM", "result": 304}
    ]},
    {"molecule": "Oc1cc(O)c2c(c1)O[C@H](c1cc(O)c(O)c(O)c1)[C@@H](O)C2", "note": "[Gallocatechin]", "values": [
      {"measurement": "AMPK-activating effect (summary in words)", "setting": "phospho-AMPK α (Thr72)", "result": "excellent AMPK-activating effect"},
      {"measurement": "Phospho-AMPK α", "setting": "phospho-AMPK α (Thr72); Table 4, 150 μM", "result": 451}
    ]},
    {"molecule": "O=C(O[C@@H]1Cc2c(O)cc(O)cc2O[C@H]1c1cc(O)c(O)c(O)c1)c1cc(O)c(O)c(O)c1", "note": "[Gallocatechingallate]", "values": [
      {"measurement": "AMPK-activating effect (summary in words)", "setting": "phospho-AMPK α (Thr72)", "result": "excellent AMPK-activating effect"},
      {"measurement": "Phospho-AMPK α", "setting": "phospho-AMPK α (Thr72); Table 4, 150 μM", "result": 1124}
    ]},
    {"molecule": "Catechin", "values": [
      {"measurement": "Phospho-AMPK α", "setting": "phospho-AMPK α (Thr72); Table 4, 150 μM", "result": 78}
    ]},
    {"molecule": "Catechingallate", "values": [
      {"measurement": "Phospho-AMPK α", "setting": "phospho-AMPK α (Thr72); Table 4, 150 μM", "result": 369}
    ]}
  ]
}
